# Test system: 415267-285-R-J2-PDC complex spheroid viability
# Test: Anticancer human tumor 415267-285-R-J2-PDC patient-derived breast carcinoma cell line growth inhibition [POLQ]
# Details: for IC50: curve of first compound; for viability, T/C: stronger effect = lower value
# Method in brief: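 PDC + HUVEC + MSC complex spheroids; POLQ inhibitors ± partner drugs; top conc. at/near clinical Cmax, else 10 microM (SN-38 1 microM), half-log dilutions; 37 degrees C, 5% CO2.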
# [1] = second compound 0.0316 µM, first compound 0.0316 µM
# [2] = second compound 0.0316 µM, first compound 0.1 µM
# [3] = second compound 0.0316 µM, first compound 0.316 µM
# [4] = second compound 0.0316 µM, first compound 1 µM
# [5] = second compound 0.0316 µM, first compound 3.16 µM
# [6] = second compound 0.0316 µM, first compound 10 µM
# [7] = second compound 0.1 µM, first compound 0.0316 µM
# [8] = second compound 0.1 µM, first compound 0.1 µM
# [9] = second compound 0.1 µM, first compound 0.316 µM
# [10] = second compound 0.1 µM, first compound 1 µM
# [11] = second compound 0.1 µM, first compound 3.16 µM
# [12] = second compound 0.1 µM, first compound 10 µM
# [13] = second compound 0.316 µM, first compound 0.0316 µM
# [14] = second compound 0.316 µM, first compound 0.1 µM
# [15] = second compound 0.316 µM, first compound 0.316 µM
# [16] = second compound 0.316 µM, first compound 1 µM
# [17] = second compound 0.316 µM, first compound 3.16 µM
# [18] = second compound 0.316 µM, first compound 10 µM
# [19] = second compound 1 µM, first compound 0.0316 µM
# [20] = second compound 1 µM, first compound 0.1 µM
# [21] = second compound 1 µM, first compound 0.316 µM
# [22] = second compound 1 µM, first compound 1 µM
# [23] = second compound 1 µM, first compound 3.16 µM
# [24] = second compound 1 µM, first compound 10 µM
# [25] = second compound 3.16 µM, first compound 0.0316 µM
# [26] = second compound 3.16 µM, first compound 0.1 µM
# [27] = second compound 3.16 µM, first compound 0.316 µM
# [28] = second compound 3.16 µM, first compound 1 µM
# [29] = second compound 3.16 µM, first compound 3.16 µM
# [30] = second compound 3.16 µM, first compound 10 µM
# [31] = second compound 10 µM, first compound 0.0316 µM
# [32] = second compound 10 µM, first compound 0.1 µM
# [33] = second compound 10 µM, first compound 0.316 µM
# [34] = second compound 10 µM, first compound 1 µM
# [35] = second compound 10 µM, first compound 3.16 µM
# [36] = second compound 10 µM, first compound 10 µM
# 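Note: spheroids exposed to compounds for one week before readout.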
# 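Throughout, for viability, T/C: luminescence used as stand-in measure of viable cells; 100% = DMSO vehicle control viability.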
compound,measurement,setting,value
COc1cc(C2c3cc4c(cc3C(OC3OC5COC(C)OC5C(O)C3O)C3COC(=O)C23)OCO4)cc(OC)c1O (stereo unspecified) + Nc1ccc(C#CCN(C(=O)Cc2ncc(C(F)(F)F)cc2C(F)(F)F)c2ccc(F)cc2)nn1,IC50,second compound 0.0316 µM,0.193 µM
same,IC50,second compound 0.1 µM,0.193 µM
same,IC50,second compound 0.316 µM,0.194 µM
same,IC50,second compound 1 µM,0.169 µM
same,IC50,second compound 3.16 µM,0.175 µM
same,IC50,second compound 10 µM,0.158 µM
same,"viability, T/C",[1],93.4%
same,"viability, T/C",[2],91.5%
same,"viability, T/C",[3],19%
same,"viability, T/C",[4],6.3%
same,"viability, T/C",[5],4.79%
same,"viability, T/C",[6],4.39%
same,"viability, T/C",[7],106%
same,"viability, T/C",[8],102%
same,"viability, T/C",[9],11.6%
same,"viability, T/C",[10],6.09%
same,"viability, T/C",[11],4.34%
same,"viability, T/C",[12],4.16%
same,"viability, T/C",[13],107%
same,"viability, T/C",[14],97.8%
same,"viability, T/C",[15],14.4%
same,"viability, T/C",[16],6.8%
same,"viability, T/C",[17],5.09%
same,"viability, T/C",[18],4.49%
same,"viability, T/C",[19],106%
same,"viability, T/C",[20],79.4%
same,"viability, T/C",[21],15%
same,"viability, T/C",[22],6.3%
same,"viability, T/C",[23],4.91%
same,"viability, T/C",[24],4.43%
same,"viability, T/C",[25],119%
same,"viability, T/C",[26],84.3%
same,"viability, T/C",[27],13.4%
same,"viability, T/C",[28],6.83%
same,"viability, T/C",[29],4.94%
same,"viability, T/C",[30],4.27%
same,"viability, T/C",[31],103%
same,"viability, T/C",[32],72.5%
same,"viability, T/C",[33],16.2%
same,"viability, T/C",[34],6.36%
same,"viability, T/C",[35],4.59%
same,"viability, T/C",[36],4.33%
C#Cc1c(F)ccc2cc(O)cc(-c3ncc4c(N5CC6CCC(C5)N6)nc(OCC56CCCN5CC(F)C6)nc4c3F)c12 (stereo unspecified) + Cc1cccc(N(C)C(=O)C2C(O)CCN2c2nc(C)cc(C(F)(F)F)c2C#N)c1,IC50,second compound 0.0316 µM,> 10 µM
same,IC50,second compound 0.1 µM,> 10 µM
same,IC50,second compound 0.316 µM,> 10 µM
same,IC50,second compound 1 µM,> 10 µM
same,IC50,second compound 3.16 µM,> 10 µM
same,IC50,second compound 10 µM,> 10 µM
same,"viability, T/C",[1],96.9%
same,"viability, T/C",[2],95.5%
same,"viability, T/C",[3],104%
same,"viability, T/C",[4],104%
same,"viability, T/C",[5],111%
same,"viability, T/C",[6],101%
same,"viability, T/C",[7],91.2%
same,"viability, T/C",[8],99.8%
same,"viability, T/C",[9],91%
same,"viability, T/C",[10],99.8%
same,"viability, T/C",[11],104%
same,"viability, T/C",[12],102%
same,"viability, T/C",[13],112%
same,"viability, T/C",[14],102%
same,"viability, T/C",[15],100%
same,"viability, T/C",[16],115%
same,"viability, T/C",[17],113%
same,"viability, T/C",[18],104%
same,"viability, T/C",[19],101%
same,"viability, T/C",[20],106%
same,"viability, T/C",[21],92.9%
same,"viability, T/C",[22],117%
same,"viability, T/C",[23],106%
same,"viability, T/C",[24],109%
same,"viability, T/C",[25],113%
same,"viability, T/C",[26],98.8%
same,"viability, T/C",[27],104%
same,"viability, T/C",[28],115%
same,"viability, T/C",[29],91.3%
same,"viability, T/C",[30],98.7%
same,"viability, T/C",[31],105%
same,"viability, T/C",[32],95.4%
same,"viability, T/C",[33],95.6%
same,"viability, T/C",[34],98%
same,"viability, T/C",[35],101%
same,"viability, T/C",[36],98.4%
O=C(c1cc(Cc2n[nH]c(=O)c3ccccc23)ccc1F)N1CCN(C(=O)C2CC2)CC1 + COC1C(OC(N)=O)C(O)C(Oc2ccc3c(O)c(NC(=O)c4ccc(O)c(CC=C(C)C)c4)c(=O)oc3c2C)OC1(C)C,IC50,second compound 0.0316 µM,> 10 µM
same,IC50,second compound 0.1 µM,> 10 µM
same,IC50,second compound 0.316 µM,> 10 µM
same,IC50,second compound 1 µM,> 10 µM
same,IC50,second compound 3.16 µM,> 10 µM
same,IC50,second compound 10 µM,> 10 µM
same,"viability, T/C",[1],88%
same,"viability, T/C",[2],92.7%
same,"viability, T/C",[3],89.4%
same,"viability, T/C",[4],94.3%
same,"viability, T/C",[5],96.5%
same,"viability, T/C",[6],81.8%
same,"viability, T/C",[7],95.5%
same,"viability, T/C",[8],94%
same,"viability, T/C",[9],87%
same,"viability, T/C",[10],92%
same,"viability, T/C",[11],94.6%
same,"viability, T/C",[12],79.6%
same,"viability, T/C",[13],93.5%
same,"viability, T/C",[14],102%
same,"viability, T/C",[15],98.2%
same,"viability, T/C",[16],96.6%
same,"viability, T/C",[17],90.4%
same,"viability, T/C",[18],95.1%
same,"viability, T/C",[19],98.5%
same,"viability, T/C",[20],101%
same,"viability, T/C",[21],96.8%
same,"viability, T/C",[22],90.9%
same,"viability, T/C",[23],96%
same,"viability, T/C",[24],77.9%
same,"viability, T/C",[25],97.2%
same,"viability, T/C",[26],91.9%
same,"viability, T/C",[27],90.8%
same,"viability, T/C",[28],94.8%
same,"viability, T/C",[29],98.3%
same,"viability, T/C",[30],81.4%
same,"viability, T/C",[31],97.6%
same,"viability, T/C",[32],105%
same,"viability, T/C",[33],92%
same,"viability, T/C",[34],93.2%
same,"viability, T/C",[35],89.2%
same,"viability, T/C",[36],79.7%
